Results on 3 compounds are retold here after publication PMC4666608, “Metabolic Profiling of Chicken Embryos Exposed to Perfluorooctanoic Acid (PFOA) and Agonists to Peroxisome Proliferator-Activated Receptors” (PLoS ONE, 2015).

Several values for one entry are separate records, joined by “and”; a condition that tells them apart may be missing. Equal values may be shown once.

The series deals with chicken embryos. Nature of the series: Embryo mortality after in ovo exposure (air sac injection E7, examined E12). The class given is in vivo, Gallus gallus domesticus. How it is done: Controls were injected with 20 μL vehicle only (DMSO).
Embryos were dissected and sampled on E12. The treatment group was concealed to the one carrying out embryo dissections and the order of dissection of the embryos was randomized. The embryos were examined for viability and gross morphology, e.g. appearance of the liver. The sex was determined by the presence of a pair of testes or an ovary.
Mortality rates were analyzed with Fisher’s exact test.

[1] abbreviates: in ovo injection E7, sampled E12, 150 μg/egg.
[2] abbreviates: in ovo injection E7, sampled E12, PFOA 50 μg/egg.
Where [3] appears, read: in ovo injection E7, sampled E12, PFOA 250 μg/egg.
Where [4] appears, read: in ovo injection E7, sampled E12, PFOA 1000 μg/egg.

As to `CC(C)(Sc1ccc(CCN(CCCCC2CCCCC2)C(=O)NC2CCCCC2)cc1)C(=O)O` [GW7647, reference compound], under setting [1], the Mortality rate was 0% and the “Mortality rate, Ratio” value was 0/40.

As for `O=C(O)C(F)(F)C(F)(F)C(F)(F)C(F)(F)C(F)(F)C(F)(F)C(F)(F)F` [PFOA, perfluorooctanoic acid], the Mortality rate is, setting by setting: (PFOA 1000 μg/egg, replicate A) 40%; (PFOA 1000 μg/egg, replicate B) 60%; (PFOA 1000 μg/egg, replicate C) 33%; (PFOA 1000 μg/egg, replicate D) 7%; under setting [2], 5%; under setting [3], 2.5%. Moreover, the Mortality rate under setting [4] was 35% and 35 ^*** %. Moreover, the “Dose with increased mortality” value (exposed E7 to E12) worked out at 18 mg/kg egg. The “Dose with no effect on survival (no effect level)” value (exposed E7 to E12) worked out at 4.2 mg/kg egg. Also, where the note is “follow-up study, PFOA 1000 μg/egg, N = 25, control 12%”, the Mortality is on record as 40%. For the same compound, the “Mortality rate, Ratio” value is on record as 2/40 under setting [2], 1/40 under setting [3] and 19/54 under setting [4].

Take `CN(CCOc1ccc(CC2SC(=O)NC2=O)cc1)c1ccccn1` (centres unmarked) [Rosiglitazone, rosiglitazone, reference compound]: under setting [1], the Mortality rate stood at 5% and the “Mortality rate, Ratio” value was 2/40.
